pIC50: −log10 of the molar value. Structures can show the parent of a compound that is named as a salt. Where two headings read alike, the source gives them in different places.
What was measured:
[1] = molecular target: T1, rat liver hydroxymethylglutaryl-CoA reductase (Rattus norvegicus, UniProt P51639); assay: Inhibition of rat liver HMG-CoA reductase; format: biochemical; conditions: rat liver HMG-CoA reductase activity inhibited by 50%; read-out: HMG-CoA R IC50
T1 sequence (P51639 1-887): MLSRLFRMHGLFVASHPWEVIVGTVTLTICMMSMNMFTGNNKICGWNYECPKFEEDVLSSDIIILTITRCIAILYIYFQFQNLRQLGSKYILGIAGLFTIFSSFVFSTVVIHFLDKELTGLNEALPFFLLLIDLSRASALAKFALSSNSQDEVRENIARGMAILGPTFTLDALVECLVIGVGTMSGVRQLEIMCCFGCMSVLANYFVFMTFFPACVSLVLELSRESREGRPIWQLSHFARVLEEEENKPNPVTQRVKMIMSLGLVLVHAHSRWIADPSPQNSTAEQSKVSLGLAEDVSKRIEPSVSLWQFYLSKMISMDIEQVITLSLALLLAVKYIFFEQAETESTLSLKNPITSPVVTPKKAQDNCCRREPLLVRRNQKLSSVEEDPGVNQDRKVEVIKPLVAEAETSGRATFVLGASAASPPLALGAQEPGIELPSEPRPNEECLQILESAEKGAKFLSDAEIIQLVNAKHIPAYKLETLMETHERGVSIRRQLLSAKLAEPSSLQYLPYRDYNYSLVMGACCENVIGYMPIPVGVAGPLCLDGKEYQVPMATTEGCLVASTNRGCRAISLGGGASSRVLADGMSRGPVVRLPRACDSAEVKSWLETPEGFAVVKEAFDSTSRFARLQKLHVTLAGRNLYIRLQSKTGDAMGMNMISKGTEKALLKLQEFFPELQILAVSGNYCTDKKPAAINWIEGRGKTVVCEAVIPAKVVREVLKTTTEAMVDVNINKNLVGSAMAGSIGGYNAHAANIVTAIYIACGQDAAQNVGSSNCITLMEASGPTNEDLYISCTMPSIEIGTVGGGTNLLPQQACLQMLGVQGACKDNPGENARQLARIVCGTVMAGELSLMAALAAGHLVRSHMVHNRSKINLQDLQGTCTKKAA
Description: (§1) The biological activities of compounds of the present invention were measured in assays which include: • 1) Inhibition of rat liver HMG-CoA reductase. Further details on the assay are present in Heller, R. A.; Gould, R. G. Biochem. Biophys. Research Commun. 1973, 50, 859 and Kubo, M.; Strott, C. A.; Endocrinology 1987, 120, 214. • 2) Inhibition of recombinant human p38αMAPK • 3) Inhibition of lipopolysaccharide (LPS)-stimulated release of tumor necrosis factor alpha (TNFα) from human peripheral blood mononuclear cells (PBMC).

[2] = molecular target: T2, recombinant human p38α MAPK (Homo sapiens, UniProt Q16539); assay: Human p38α MAP kinase inhibition assay (cell-free); format: biochemical; conditions: MBP substrate, 100 μM ATP
T2 construct: purchased UBI 14-251; host or cells: E. coli
Description: as §1
Human p38αMAP Kinase Inhibition Assay: In vitro cell-free p38αMAP kinase inhibition assays were conducted by the method as described in Clerk et al., FEBS Lett., 426:93-96 (1998) for a number of lactones in formulas I/IIa/IIb. Briefly, human recombinant p38α protein kinase expressed in E. coli (UBI #14-251) was used. Myelin basic protein (MBP, UBI #13-110) was employed as substrate, and microtiter plate wells were coated with MBP (0.01 mg/ml) overnight at 4° C. Candidate compound and/or vehicle was preincubated with 0.075 μg/mL enzyme in modified HEPES buffer pH 7.4 at 25° C. for 15 minutes. The reaction was initiated by addition of 100 μM ATP and allowed to proceed for another 60 minutes. The reaction was terminated by aspirating the solution. Phosphorylated MBP was detected by incubation with a mouse monoclonal IgG2a anti-phosphoMBP antibody. Bound anti-phosphoMBP antibody was quantitated by incubation with a HRP conjugated goat anti-mouse IgG. The protein kinase activity was proportional to the readings of optical density at 405 nm resulting from reaction with an ABTS Microwell Peroxidase Substrate System.

[3] = test system: lipopolysaccharide-stimulated release of TNFα from human peripheral blood mononuclear cells (PBMC); assay: Whole cell LPS-stimulated TNF-α release assay; format: cell-based; conditions: read-out: TNFα Release IC50
Description: as §1
Whole Cell LPS-Stimulated TNF-α Release Assay: The procedure as described in Welker et al., Int. Arch. Allergy and Immunol. 109:110-115 (1996) was followed. Briefly, a candidate compound and/or vehicle was preincubated with human peripheral blood mononuclear leukocytes (PBML, 5×10^5/ml) cells in AIM-V medium pH 7.4 for 2 hours. Lipopolysaccharide (LPS, 25 ng/ml) was added to stimulate the cells, which was incubated overnight at 37° C. TNF-α cytokine levels in the conditioned medium was then quantitated using a sandwich ELISA kit.

T2 sequence (Q16539 whole entry): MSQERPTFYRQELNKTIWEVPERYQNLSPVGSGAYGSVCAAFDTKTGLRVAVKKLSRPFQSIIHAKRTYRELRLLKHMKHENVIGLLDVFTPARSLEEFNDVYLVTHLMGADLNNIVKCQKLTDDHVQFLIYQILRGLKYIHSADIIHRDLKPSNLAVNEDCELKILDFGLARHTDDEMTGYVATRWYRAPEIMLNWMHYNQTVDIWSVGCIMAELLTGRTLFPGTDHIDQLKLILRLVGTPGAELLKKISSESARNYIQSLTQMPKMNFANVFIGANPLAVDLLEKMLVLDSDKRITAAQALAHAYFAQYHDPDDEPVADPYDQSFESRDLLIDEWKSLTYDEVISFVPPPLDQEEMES

Structure (SMILES)	pIC50 [1]	pIC50 [2]	pIC50 ([3]; LPS-stimulated human PBMC)	pIC50 ([3]; Homo sapiens, PBMC)
CC(C)c1nc(-c2ccc(F)cc2)c(-c2ccnc(Nc3ccccc3)n2)n1/C=C/[C@@H](O)C[C@@H](O)CC(=O)O (racemic) [Example 28, (3R,5S,E) and (3S,5R,E)-7-(4-(4-fluorophenyl)-2-isopropyl-5-(2-(phenylamino)pyrimidin-4-yl)-1H-imidazol-1-yl)-3,5-dihydroxyhept-6-enoic acid sodium salt]	8.32	6.57	5.01	
CC(C)c1nc(-c2ccc(F)cc2)c(-c2ccnc(Nc3ccccc3)n2)n1CC[C@@H]1C[C@@H](O)CC(=O)O1 [Example 24, (4R,6R)-6-(2-(4-(4-fluorophenyl)-2-isopropyl-5-(2-(phenylamino)pyrimidin-4-yl)-1H-imidazol-1-yl)ethyl)-4-hydroxytetrahydro-2H-pyran-2-one]		6.96	> 5.52	
CC(C)c1nc(-c2ccc(F)cc2)c(-c2ccnc(Nc3ccccc3)n2)n1CC[C@@H](O)C[C@@H](O)CC(=O)O [Example 25, (3R,5R)-7-(4-(4-fluorophenyl)-2-isopropyl-5-(2-(phenylamino)pyrimidin-4-yl)-1H-imidazol-1-yl)-3,5-dihydroxyheptanoic acid sodium salt]	7.01	> 7.00	5.01	
O=C(O)C[C@H](O)C[C@H](O)CCn1c(-c2ccccc2)nc(-c2ccc(F)cc2)c1-c1ccncn1 [Example 39, (3R,5R)-7-(4-(4-fluorophenyl)-2-phenyl-5-(pyrimidin-4-yl)-1H-imidazol-1-yl)-3,5-dihydroxyheptanoic acid calcium salt]	< 6.00	4.85		< 3.52
O=C1C[C@H](O)C[C@@H](CCn2c(-c3ccccc3)nc(-c3ccc(F)cc3)c2-c2ccncn2)O1 [Example 40, (4R,6R)-6-(2-(4-(4-fluorophenyl)-2-phenyl-5-(pyrimidin-4-yl)-1H-imidazol-1-yl)ethyl)-4-hydroxytetrahydro-2H-pyran-2-one]		5.85	4.59	

More lines, main results first:

pIC50 [1]	pIC50 [2]	Structure (SMILES)	pIC50 ([3]; LPS-stimulated human PBMC)	pIC50 ([3]; Homo sapiens, PBMC)
	> 7.00	CC(C)c1nc(-c2ccc(F)cc2)c(-c2ccnc(Nc3ccccc3)n2)n1/C=C/[C@@H]1C[C@@H](O)CC(=O)O1 (racemic) [Example 29, (4R,6S) and (4S,6R)-6-((E)-2-(4-(4-fluorophenyl)-2-isopropyl-5-(2-(phenylamino)pyrimidin-4-yl)-1H-imidazol-1-yl)vinyl)-4-hydroxytetrahydro-2H-pyran-2-one]	4.72	
7.96	5.22	CC(C)(C)c1nc(-c2ccc(F)cc2)c(-c2ccncc2)n1/C=C/[C@@H](O)C[C@@H](O)CC(=O)O (racemic) [Example 33, (3R,5S,E) and (3S,5R,E)-7-(2-tert-butyl-4-(4-fluorophenyl)-5-(pyridin-4-yl)-1H-imidazol-1-yl)-3,5-dihydroxyhept-6-enoic acid sodium salt]	3.64	
	5.74	CC(C)(C)c1nc(-c2ccc(F)cc2)c(-c2ccncc2)n1/C=C/[C@@H]1C[C@@H](O)CC(=O)O1 (racemic) [Example 34, (4R,6S) and (4S,6R)-6-((E)-2-(2-tert-butyl-4-(4-fluorophenyl)-5-(pyridin-4-yl)-1H-imidazol-1-yl)vinyl)-4-hydroxytetrahydro-2H-pyran-2-one]	3.72	
